From PMC7587356, “High-Throughput Screening for Inhibitors of the SARS-CoV-2 Protease Using a FRET-Biosensor” (Molecules, 2020)
Where a name gives a salt, the structure may show the parent alone. Read-outs that look alike come from different tables or passages of the source.

Target: SARS-CoV-2 3CLpro (Severe acute respiratory syndrome coronavirus 2, UniProt P0DTD1)
Test: biochemical
Format: biochemical
Design: Replicate_1 / Replicate_2 / mean / mean (LOPAC_screen_w_protease): unit not given here
Details: for inhibition at 5 µM: 4 h
[1] = sheet LOPAC_screen_w_protease, primary screen with protease, compound at 5 µM, mean of two replicates
[2] = sheet LOPAC_screen_w_protease, primary screen with protease, compound at 5 µM, replicate 1
[3] = sheet LOPAC_screen_w_protease, primary screen with protease, compound at 5 µM, replicate 2
[4] = sheet LOPAC_screen_w_protease, LOPAC1280 at 5 µM, mean of two replicates
[5] = sheet LOPAC_screen_w_protease, LOPAC1280 at 5 µM, replicate 1
[6] = sheet LOPAC_screen_w_protease, LOPAC1280 at 5 µM, replicate 2
[7] = sheet LOPAC_screen_w_protease, LOPAC1280 primary screen with protease, 5 µM compound, mean of the two replicates
[8] = sheet LOPAC_screen_w_protease, LOPAC1280 primary screen with protease, 5 µM compound, replicate 1
[9] = sheet LOPAC_screen_w_protease, LOPAC1280 primary screen with protease, 5 µM compound, replicate 2
[10] = sheet LOPAC_screen_w_protease, LOPAC1280 primary screen at 5 µM, with protease, mean of the two replicates
[11] = sheet LOPAC_screen_w_protease, LOPAC1280 primary screen at 5 µM, with protease, replicate 1
[12] = sheet LOPAC_screen_w_protease, LOPAC1280 primary screen at 5 µM, with protease, replicate 2
[13] = LOPAC1280 primary screen with protease, 5 µM compound, mean of the two replicates
[14] = LOPAC1280 primary screen with protease, 5 µM compound, replicate 1
[15] = LOPAC1280 primary screen with protease, 5 µM compound, replicate 2
[16] = sheet LOPAC_screen_w_protease, primary screen of LOPAC1280 at 5 µM with protease, mean of the two replicates
[17] = sheet LOPAC_screen_w_protease, primary screen of LOPAC1280 at 5 µM with protease, replicate 1
[18] = sheet LOPAC_screen_w_protease, primary screen of LOPAC1280 at 5 µM with protease, replicate 2
[19] = LOPAC1280 primary screen with protease, 5 µM compound, mean of two replicates

Q: What does the source list for CN(C)CCC(c1ccc(Br)cc1)c1ccccn1.O=C(O)/C=C\C(=O)O (racemic) [(±)-Brompheniramine maleate]?
A: mean [1]: 2.6339; Replicate_1 [2]: 2.5605; Replicate_2 [3]: 2.707

Q: Which results are given for CC(C)(C)C1(O)CCN2CC3c4ccccc4CCc4cccc(c43)C2C1.Cl (racemic) [(±)-Butaclamol hydrochloride]?
A: Replicate_1: 4.433; Replicate_2: 5.727; mean: 5.08

Q: Which results are given for CC(C)(C)NCC(O)COc1cccc2[nH]c(=O)[nH]c12.Cl (racemic) [(±)-CGP-12177A hydrochloride]?
A: mean [4]: 1.308; Replicate_1 [5]: 3.897; Replicate_2 [6]: -1.282

Q: How did the mean [7] turn out when O=C(O)C1CN(CCCP(=O)(O)O)CCN1 (racemic) [(±)-CPP] was run?
A: 4.122

Q: And the Replicate_1 [8]?
A: 5.3739

Q: And the Replicate_2 [9]?
A: 2.869

Q: How did the Replicate_1 turn out when CN(C)CCC(c1ccc(Cl)cc1)c1ccccn1.O=C(O)/C=C\C(=O)O (racemic) [(±)-Chlorpheniramine maleate] was run?
A: 0.5322

Q: What about the Replicate_2 of the same compound?
A: -0.472

Q: And the mean?
A: 0.03007

Q: What does the source list for COc1cc(CC(C)N)c(OC)cc1I.Cl (racemic) [(±)-DOI hydrochloride]?
A: Replicate_1: 4.323; Replicate_2: 2.796; mean: 3.56

Q: With CNCC(O)c1ccc(O)c(O)c1.Cl (racemic) [(±)-Epinephrine hydrochloride] as the compound, how does the Replicate_1 read?
A: 3.211

Q: And the Replicate_2?
A: 1.4095

Q: What about the mean of the same compound?
A: 2.31

Q: Which Replicate_1 does the source give for NC1CCN(O)C1=O (racemic) [(±)-HA-966] here?
A: 0.2172

Q: And the Replicate_2?
A: 1.666

Q: And the mean?
A: 0.9415

Q: Which results are given for N[C@H](C(=O)O)c1cc(O)no1 (racemic) [(±)-Ibotenic acid]?
A: mean [10]: 0.7432; Replicate_1 [11]: 1.025; Replicate_2 [12]: 0.4611

Q: CC(C)Cc1ccc(C(C)C(=O)O)cc1 (racemic) [(±)-Ibuprofen] was tested. Which “mean (LOPAC_screen_w_protease)” value [13] did it give?
A: 1.9945

Q: What about the “Replicate_1 (LOPAC_screen_w_protease)” value [14] of the same compound?
A: 3.023

Q: And the “Replicate_2 (LOPAC_screen_w_protease)” value [15]?
A: 0.9655

Q: With CC(C)NCC(O)c1ccc(O)c(O)c1.Cl (racemic) [(±)-Isoproterenol hydrochloride] as the compound, how does the Replicate_1 [2] read?
A: 3.707

Q: And the Replicate_2 [3]?
A: 1.7371

Q: What does the source list for COc1ccc(CCN(C)CCCC(C#N)(c2cc(OC)c(OC)c(OC)c2)C(C)C)cc1OC.Cl (racemic) [(±)-Methoxyverapamil hydrochloride]?
A: mean (LOPAC_screen_w_protease) [13]: 2.071; Replicate_1 (LOPAC_screen_w_protease) [14]: 2.317; Replicate_2 (LOPAC_screen_w_protease) [15]: 1.826

Q: Which results are given for C[C@@H]1O[C@H](C[N+](C)(C)C)C[C@H]1O.[Cl-] (racemic) [(±)-Muscarine chloride]?
A: mean [7]: 5.0033; Replicate_1 [8]: 6.646; Replicate_2 [9]: 3.361

Q: What does the source list for O=C(O)C1CCCNC1 (racemic) [(±)-Nipecotic acid]?
A: mean [10]: 0.4335; Replicate_1 [11]: 0.981; Replicate_2 [12]: -0.114

Q: For COc1cc(C(O)CN)ccc1O.Cl (racemic) [(±)-Normetanephrine hydrochloride], which mean [7] is on record?
A: 4.101

Q: And the Replicate_1 [8]?
A: 4.337

Q: What about the Replicate_2 [9] of the same compound?
A: 3.864

Q: What does the source list for CN1CCN(C2Cc3ccccc3Sc3ccc(Cl)cc32)CC1.O=C(O)/C=C\C(=O)O (racemic) [(±)-Octoclothepin maleate]?
A: mean [7]: 4.928; Replicate_1 [8]: 3.609; Replicate_2 [9]: 6.247

Q: What does the source list for Cl.NCC(O)c1ccc(O)cc1 (racemic) [(±)-Octopamine hydrochloride]?
A: mean [16]: 4.023; Replicate_1 [17]: 4.835; Replicate_2 [18]: 3.21

Q: What does the source list for CCCN1CCOC2c3cc(O)ccc3OCC21.Cl (racemic) [(±)-PD 128,907 hydrochloride]?
A: mean [16]: 3.436; Replicate_1 [17]: 4.647; Replicate_2 [18]: 2.226

Q: For CCCN(CCc1ccccc1)C1CCc2c(O)cccc2C1.Cl (racemic) [(±)-PPHT hydrochloride], which mean [4] is on record?
A: 1.126

Q: What about the Replicate_1 [5] of the same compound?
A: 1.344

Q: What about the Replicate_2 [6] of the same compound?
A: 0.9086

Q: Which results are given for CC(C)NCC(O)COc1cccc2ccccc12.Cl (racemic) [(±)-Propranolol hydrochloride]?
A: Replicate_1: 2.83; Replicate_2: 6.763; mean: 4.797

Q: Which results are given for CC(C)NCC(O)c1ccc(NS(C)(=O)=O)cc1.Cl (racemic) [(±)-Sotalol hydrochloride]?
A: mean (LOPAC_screen_w_protease) [19]: 1.4398; Replicate_1 (LOPAC_screen_w_protease) [14]: 1.054; Replicate_2 (LOPAC_screen_w_protease) [15]: 1.826

Q: What does the source list for CNCC(O)c1ccc(O)cc1 (racemic) [(±)-Synephrine]?
A: mean (LOPAC_screen_w_protease) [19]: 1.431; Replicate_1 (LOPAC_screen_w_protease) [14]: 1.098; Replicate_2 (LOPAC_screen_w_protease) [15]: 1.765

Q: How did the “mean (LOPAC screen with protease)” value (sheet LOPAC_screen_w_protease, primary screen at 5 µM, mean of two replicates) turn out when O=C1c2c(O)cc(O)cc2O[C@H](c2ccc(O)c(O)c2)[C@H]1O (racemic) [(±)-Taxifolin] was run?
A: 7.529

Q: What about the “Replicate_1 (LOPAC screen with protease)” value (sheet LOPAC_screen_w_protease, primary screen at 5 µM, replicate 1) of the same compound?
A: 9.2588

Q: What about the “Replicate_2 (LOPAC screen with protease)” value (sheet LOPAC_screen_w_protease, primary screen at 5 µM, replicate 2) of the same compound?
A: 5.799

Q: For O=C1CCC(N2C(=O)c3ccccc3C2=O)C(=O)N1 (racemic) [(±)-Thalidomide], which mean [4] is on record?
A: 1.21

Q: What about the Replicate_1 [5] of the same compound?
A: 0.4169

Q: What about the Replicate_2 [6] of the same compound?
A: 2.003

Q: With COc1cc(C(O)C(=O)O)ccc1O (racemic) [(±)-Vanillylmandelic acid] as the compound, how does the mean [4] read?
A: 1.1

Q: And the Replicate_1 [5]?
A: 2.648

Q: And the Replicate_2 [6]?
A: -0.449

Q: How did the mean [10] turn out when Cl.OC1CCCCC1N1CCC(c2ccccc2)CC1 (racemic) [(±)-Vesamicol hydrochloride] was run?
A: 0.573

Q: What about the Replicate_1 [11] of the same compound?
A: 1.205

Q: What about the Replicate_2 [12] of the same compound?
A: -0.05902

Q: Which mean [7] does the source give for CC(N)(C(=O)O)c1ccc(C(=O)O)cc1 (racemic) [(±)-alpha-Methyl-4-carboxyphenylglycine] here?
A: 4.794

Q: And the Replicate_1 [8]?
A: 3.648

Q: And the Replicate_2 [9]?
A: 5.939

Q: Which “mean (LOPAC_screen_w_protease)” value [19] does the source give for O=C(O)[C@H]1CCCN[C@H]1C(=O)O (racemic) [(±)-cis-Piperidine-2,3-dicarboxylic acid] here?
A: 1.527

Q: What about the “Replicate_1 (LOPAC_screen_w_protease)” value [14] of the same compound?
A: 0.9979

Q: And the “Replicate_2 (LOPAC_screen_w_protease)” value [15]?
A: 2.056

Q: With C=CC(N)CCC(=O)O (racemic) [(±)-gamma-Vinyl GABA] as the compound, how does the mean (sheet LOPAC_screen_w_protease, primary screen with protease, 5 µM, mean of two replicates) read?
A: -0.2228

Q: What about the Replicate_1 (sheet LOPAC_screen_w_protease, primary screen with protease, 5 µM, replicate 1) of the same compound?
A: -0.2758

Q: And the Replicate_2 (sheet LOPAC_screen_w_protease, primary screen with protease, 5 µM, replicate 2)?
A: -0.1698

Q: What does the source list for CCC1(c2ccc(N)cc2)CCC(=O)NC1=O (racemic) [(±)-p-Aminoglutethimide]?
A: mean (sheet LOPAC_screen_w_protease, primary screen with protease, mean of two replicates): 2.443; Replicate_1 (sheet LOPAC_screen_w_protease, primary screen with protease, replicate 1): 1.25; Replicate_2 (sheet LOPAC_screen_w_protease, primary screen with protease, replicate 2): 3.637

Q: How did the mean [16] turn out when NC(Cc1ccc(Cl)cc1)C(=O)O (racemic) [(±)-p-Chlorophenylalanine] was run?
A: 3.154

Q: And the Replicate_1 [17]?
A: 1.596

Q: And the Replicate_2 [18]?
A: 4.711

Q: Which results are given for CCCCS(=N)(=O)CCC(N)C(=O)O (racemic) [DL-Buthionine-[S,R]-sulfoximine]?
A: mean [10]: 0.7813; Replicate_1 [11]: 0.9596; Replicate_2 [12]: 0.6029

Q: For N[C@@H]1CONC1=O (racemic) [DL-Cycloserine], which mean [16] is on record?
A: 3.186

Q: And the Replicate_1 [17]?
A: 2.383

Q: And the Replicate_2 [18]?
A: 3.989

Q: What does the source list for CCCCCCCCCCCCCCCCCC(=O)OC(CC(=O)O)C[N+](C)(C)C.[Cl-] (racemic) [DL-Stearoylcarnitine chloride]?
A: mean (LOPAC_screen_w_protease) [13]: 1.7681; Replicate_1 (LOPAC_screen_w_protease) [14]: 3.299; Replicate_2 (LOPAC_screen_w_protease) [15]: 0.2369

Q: With O=C(O)CNC(=O)C(CS)Cc1ccccc1 (racemic) [DL-Thiorphan] as the compound, how does the inhibition at 5 µM (sheet LOPAC_screen_w_protease, primary screen with protease, 5 µM, mean of two replicates, read-out: mean) read?
A: 0.357%

Q: What about the inhibition at 5 µM (sheet LOPAC_screen_w_protease, primary screen with protease, 5 µM, replicate 1, read-out: Replicate_1) of the same compound?
A: -0.479%

Q: What about the inhibition at 5 µM (sheet LOPAC_screen_w_protease, primary screen with protease, 5 µM, replicate 2, read-out: Replicate_2) of the same compound?
A: 1.19%

Q: For CC(N)(Cc1ccc(O)cc1)C(=O)O (racemic) [DL-alpha-Methyl-p-tyrosine], which mean [4] is on record?
A: 1.1698

Q: What about the Replicate_1 [5] of the same compound?
A: 0.7226

Q: What about the Replicate_2 [6] of the same compound?
A: 1.617

Q: What does the source list for CCCCCCCCCCCCCCC[C@H](O)[C@H](N)CO (racemic) [DL-erythro-Dihydrosphingosine]?
A: mean (LOPAC_screen_w_protease) [19]: 1.428; Replicate_1 (LOPAC_screen_w_protease) [14]: 4.536; Replicate_2 (LOPAC_screen_w_protease) [15]: -1.681

Q: For NC(C(=O)O)C(O)C(=O)O (racemic) [DL-threo-beta-hydroxyaspartic acid], which “mean (LOPAC_screen_w_protease)” value [13] is on record?
A: 2.095

Q: What about the “Replicate_1 (LOPAC_screen_w_protease)” value [14] of the same compound?
A: 2.385

Q: What about the “Replicate_2 (LOPAC_screen_w_protease)” value [15] of the same compound?
A: 1.804

Q: What does the source list for Oc1cc2c(cc1O)[C@H]1c3ccccc3CN[C@@H]1CC2 (racemic) [Dihydrexidine hydrochloride]?
A: inhibition at 5 µM (read-out: Replicate_1 (LOPAC screen with protease)): 96.2%; inhibition at 5 µM (read-out: Replicate_2 (LOPAC screen with protease)): 98.8%; inhibition at 5 µM (read-out: mean (LOPAC screen with protease)): 97.5%

Q: What does the source list for CCCCCCCCCCCCCCCC(=O)OC(CC(=O)O)C[N+](C)(C)C.[Cl-] (racemic) [Palmitoyl-DL-Carnitine chloride]?
A: mean [1]: 2.684; Replicate_1 [2]: 2.378; Replicate_2 [3]: 2.9894
